Experimental data: US11919854B2, “P2RX7 modulators in therapy” (Centre national de la recherche scientifique, priority 2018, dated 2024)

Target: T1, mouse P2RX7 (Mus musculus, UniProt Q9Z1M0)
T1 construct: expressed in transfected cells; host or cells: HEK cells
T1 sequence (Q9Z1M0 1-595): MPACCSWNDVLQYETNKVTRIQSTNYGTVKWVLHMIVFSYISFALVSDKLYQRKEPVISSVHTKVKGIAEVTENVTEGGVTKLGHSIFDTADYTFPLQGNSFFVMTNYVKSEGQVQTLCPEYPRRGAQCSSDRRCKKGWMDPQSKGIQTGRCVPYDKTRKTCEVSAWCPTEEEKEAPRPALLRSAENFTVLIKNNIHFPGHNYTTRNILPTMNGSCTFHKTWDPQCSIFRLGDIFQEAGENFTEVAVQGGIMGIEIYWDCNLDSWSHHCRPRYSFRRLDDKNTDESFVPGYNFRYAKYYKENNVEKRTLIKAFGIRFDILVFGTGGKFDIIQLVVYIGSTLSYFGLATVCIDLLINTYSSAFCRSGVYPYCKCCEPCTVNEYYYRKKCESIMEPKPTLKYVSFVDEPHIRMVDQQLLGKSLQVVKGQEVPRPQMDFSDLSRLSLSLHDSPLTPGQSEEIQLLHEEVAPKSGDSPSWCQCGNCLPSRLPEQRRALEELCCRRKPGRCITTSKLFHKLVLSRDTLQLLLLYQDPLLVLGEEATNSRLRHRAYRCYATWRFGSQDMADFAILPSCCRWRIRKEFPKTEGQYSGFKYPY
Test: Calcium influx and large cation permeation by FACS, 15 min, HEK cells with mouse P2RX7, increasing doses of BzATP
Type: cell-based
Conditions: 15 min stimulation
Method: Calcium influx (Fluo-AM positive cells) and large cation permeation (Topro3 positive cells) were assayed by FACS 15 min after stimulation of HEK cells transfected with the mouse P2RX7 treated with increasing doses of BzATP.
Complementary analyses were also performed to document the biological activity of HEI3090, the more soluble version of HEI2328, on both HEK cells expressing mouse P2RX7 (mP2RX7) (FIG. 14) or human P2RX7 (hP2RX7) (FIG. 15). BzATP or ATP stimulate channel activity, an event that occurred in the first minutes of P2RX7 stimulation. […] The same positive effect was observed on cells expressing human P2RX7 (FIG. 15).

Structure (SMILES): O=C(NCc1ccc(Cl)cc1Cl)[C@@H]1CCC(=O)N1C(=O)Nc1ccc(Cl)nc1 [HEI3090, (S)—N^1-(6-Chloropyridin-3-yl)-N^2-(2,4-dichlorobenzyl)-5-oxopyrrolidine-1,2-dicarboxamide]
- decrease of the EC50 (BzATP) in the presence of HEI3090 (increasing doses of BzATP, HEI3090 250 nM): 22%
- shift of the EC50 for BzATP (low dose of HEI3090 (250 nM)): shift to the left of the EC50 for BzATP
